Test results taken from ChEMBL document CHEMBL1201862, “PubChem BioAssay data set” (2004).
The source made the active and inactive calls.

How the values were obtained:
[1] = target: T1, Tyrosine-protein phosphatase non-receptor type 7 (Homo sapiens, UniProt P35236); assay type: functional
T1 sequence (P35236 whole entry): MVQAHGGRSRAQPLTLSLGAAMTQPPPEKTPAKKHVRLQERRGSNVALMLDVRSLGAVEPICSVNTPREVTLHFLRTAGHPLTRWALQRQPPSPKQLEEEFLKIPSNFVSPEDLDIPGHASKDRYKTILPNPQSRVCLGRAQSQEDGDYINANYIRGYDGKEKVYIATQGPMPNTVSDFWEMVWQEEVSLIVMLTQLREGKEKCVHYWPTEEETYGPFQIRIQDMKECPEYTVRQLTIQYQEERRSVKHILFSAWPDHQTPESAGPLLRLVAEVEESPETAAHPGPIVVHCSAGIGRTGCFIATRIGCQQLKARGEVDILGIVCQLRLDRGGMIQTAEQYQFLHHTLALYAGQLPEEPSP

[2] = target: Glyceraldehyde-3-phosphate dehydrogenase (Homo sapiens, UniProt P04406)
Chain of Glyceraldehyde-3-phosphate dehydrogenase (P04406 whole entry): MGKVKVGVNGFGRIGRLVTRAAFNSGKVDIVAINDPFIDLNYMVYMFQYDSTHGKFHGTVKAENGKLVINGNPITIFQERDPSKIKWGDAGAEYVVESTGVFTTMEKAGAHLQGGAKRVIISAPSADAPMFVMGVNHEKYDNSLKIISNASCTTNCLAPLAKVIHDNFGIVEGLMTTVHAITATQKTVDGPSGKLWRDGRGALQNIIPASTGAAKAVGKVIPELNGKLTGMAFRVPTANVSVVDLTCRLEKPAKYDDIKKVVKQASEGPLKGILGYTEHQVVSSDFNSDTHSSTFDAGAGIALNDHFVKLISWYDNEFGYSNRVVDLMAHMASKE

[3] = target: T2, Dual specificity protein phosphatase 6 (Rattus norvegicus, UniProt Q64346)
T2 sequence (Q64346 whole entry): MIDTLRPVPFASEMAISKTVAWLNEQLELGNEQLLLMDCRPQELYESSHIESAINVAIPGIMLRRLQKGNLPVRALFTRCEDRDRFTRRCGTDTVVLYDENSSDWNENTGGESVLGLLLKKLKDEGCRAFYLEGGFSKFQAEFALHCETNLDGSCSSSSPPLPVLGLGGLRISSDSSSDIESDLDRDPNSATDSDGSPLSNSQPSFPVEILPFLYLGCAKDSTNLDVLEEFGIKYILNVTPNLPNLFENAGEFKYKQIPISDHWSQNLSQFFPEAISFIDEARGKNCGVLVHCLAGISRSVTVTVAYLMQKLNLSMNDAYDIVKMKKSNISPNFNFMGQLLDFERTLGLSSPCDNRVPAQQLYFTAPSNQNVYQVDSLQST

[4] = target: T2, Dual specificity protein phosphatase 6; assay type: functional
[5] = Luminescence Cell-Based/Microorganism Confirmation at Dose of Inhibitors of Trypanosoma cruzi Infection. [Related pubchem assays: 1885, 1968 ]; assay type: functional
[6] = Trypanosoma cruzi growth suppression in host cells – NIH3T3 host cells, beta-gal luminescence, confirmation (AID 2044); assay type: functional, cell-based;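 note: intracellular parasites grown in NIH/3T3 mouse fibroblasts as host cells; luminescent beta-galactosidase reporter signal from transgenic T. cruzi replicating inside host cells; inhibitors lower the luminescence signal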
[7] = Luminescence Cell-Based Secondary HTS screen to identify cytotoxic compounds of NIH3T3 cells. [Related pubchem assays: 1885, 1968 ]; assay type: functional
[8] = NIH3T3 cell viability loss – ATP luminescence, mouse fibroblasts, counter-screen, dose response (AID 2010); assay type: functional, cell-based;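 note: cells exposed to compound for about 90 hours before reading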
[9] = T. cruzi infection blockers in NIH3T3 cells – beta-gal luminescence, NIH3T3 host cells, confirmation (AID 2630); assay type: functional, cell-based; settings: Mus musculus
[10] = target: T3, Heat shock factor protein 1 (Mus musculus, UniProt P38532); test: enhancement of HSF1-driven luciferase signal – cell-based, NIH3T3, luminescence, dose retest, confirmation (AID 435004); assay type: functional;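 note: stress induced by proteasome inhibitor MG132 added 30 min after compound; luciferase reporter driven by HSF1 response element in NIH3T3 cells; actives raise luminescence as potentiators of the MG132 stress response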
T3 sequence (P38532 whole entry): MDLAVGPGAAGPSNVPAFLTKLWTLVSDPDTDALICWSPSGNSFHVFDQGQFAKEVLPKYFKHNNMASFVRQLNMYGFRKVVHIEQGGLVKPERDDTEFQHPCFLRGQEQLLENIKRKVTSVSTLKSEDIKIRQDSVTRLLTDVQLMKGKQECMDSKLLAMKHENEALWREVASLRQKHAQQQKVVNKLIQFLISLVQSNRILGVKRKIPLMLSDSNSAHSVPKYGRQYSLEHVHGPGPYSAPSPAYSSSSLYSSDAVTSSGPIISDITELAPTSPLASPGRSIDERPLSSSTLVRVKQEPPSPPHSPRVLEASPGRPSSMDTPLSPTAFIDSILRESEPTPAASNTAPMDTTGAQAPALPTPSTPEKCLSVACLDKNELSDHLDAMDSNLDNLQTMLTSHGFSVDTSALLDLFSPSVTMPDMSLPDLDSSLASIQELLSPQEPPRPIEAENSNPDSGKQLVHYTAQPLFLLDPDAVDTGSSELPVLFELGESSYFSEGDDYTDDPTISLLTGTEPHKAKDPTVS

Vero [11] = test: cells; assay type: functional, cell-based; settings: Chlorocebus sabaeus
Vero [12] = test: cells; assay type: functional; settings: Chlorocebus sabaeus
[13] = target: Nuclear receptor subfamily 5 group A member 2 (Homo sapiens, UniProt O00482); assay type: functional, cell-based;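 note: HEK293T cells transfected with LRH-1 and a StAR promoter luciferase reporter; potency for inhibitors that lower LRH-1 driven reporter light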
Chain of Nuclear receptor subfamily 5 group A member 2 (O00482 whole entry): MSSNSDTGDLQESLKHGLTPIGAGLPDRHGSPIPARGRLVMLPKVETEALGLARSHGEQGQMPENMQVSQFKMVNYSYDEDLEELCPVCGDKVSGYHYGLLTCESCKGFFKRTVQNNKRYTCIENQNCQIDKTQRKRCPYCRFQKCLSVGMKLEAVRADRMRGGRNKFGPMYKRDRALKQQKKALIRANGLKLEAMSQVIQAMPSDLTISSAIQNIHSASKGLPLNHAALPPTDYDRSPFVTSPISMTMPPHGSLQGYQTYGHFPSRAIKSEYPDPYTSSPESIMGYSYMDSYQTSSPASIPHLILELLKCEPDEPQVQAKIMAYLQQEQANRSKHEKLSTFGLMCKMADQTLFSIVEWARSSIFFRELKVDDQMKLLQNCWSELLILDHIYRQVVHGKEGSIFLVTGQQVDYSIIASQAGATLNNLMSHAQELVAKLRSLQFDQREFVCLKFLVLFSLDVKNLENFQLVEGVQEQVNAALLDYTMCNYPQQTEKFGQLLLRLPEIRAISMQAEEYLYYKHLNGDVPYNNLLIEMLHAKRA

Steroidogenic factor 1 = Steroidogenic factor 1 (Homo sapiens, UniProt Q13285); test: Counterscreen for inverse agonists of the liver receptor homolog-1 (LRH-1; NR5A2): Luminescence-based cell-based high throughput dose response assay to identify inverse agonists of the Steroidogenic Factor 1 Nuclear Receptor (SF1; NR5A1).; assay type: functional
Chain of Steroidogenic factor 1 (Q13285 whole entry): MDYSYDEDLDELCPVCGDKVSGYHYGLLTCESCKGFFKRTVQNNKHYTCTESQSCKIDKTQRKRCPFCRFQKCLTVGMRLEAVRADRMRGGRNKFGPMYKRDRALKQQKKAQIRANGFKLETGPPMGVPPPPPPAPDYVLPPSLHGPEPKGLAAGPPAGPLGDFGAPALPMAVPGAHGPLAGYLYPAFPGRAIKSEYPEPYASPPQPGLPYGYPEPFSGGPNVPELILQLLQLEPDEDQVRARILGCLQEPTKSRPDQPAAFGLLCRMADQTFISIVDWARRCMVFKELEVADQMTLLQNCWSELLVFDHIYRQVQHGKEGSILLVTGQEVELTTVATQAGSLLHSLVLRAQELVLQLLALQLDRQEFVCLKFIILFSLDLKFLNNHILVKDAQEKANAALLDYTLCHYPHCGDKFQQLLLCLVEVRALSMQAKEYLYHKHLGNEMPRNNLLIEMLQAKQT

[14] = nonselective StAR promoter luciferase inhibitors – cell-based, luminescence, luciferase reporter, counter-screen for LRH-1 inverse agonist project, dose response (AID 651969); assay type: functional
Candida albicans [15] = test: fluconazole-resistant Candida strain growth inhibitors – CaCi-8 strain, dry powder, set 4, dose response (AID 488950); assay type: functional, organism-based
Candida albicans [16] = test: C. albicans growth inhibition with fluconazole – CaCi-2 strain, Alamar Blue, dry powder, set 4, dose response (AID 488943); assay type: functional, organism-based
Candida albicans [17] = test: Candida growth inhibition combined with fluconazole – CaCi-2 strain, Alamar Blue, dry powder, set 3, dose response (AID 488907); assay type: functional, organism-based
Candida albicans [18] = test: single-agent toxicity toward C. albicans – CaCi-2 strain, no fluconazole, dry powder, set 4, counter-screen for reversing antifungal drug resistance, dose response (AID 488932); assay type: functional, organism-based
Candida albicans [19] = test: antifungal activity against resistant Candida strain – CaCi-8, fluconazole, Alamar Blue, dry powder, dose response (AID 488807); assay type: functional, organism-based
[20] = blockers of SFLLRN-triggered platelet ATP secretion – cell-based, human platelets, luminescence, dry powder, dose response (AID 493100); assay type: functional
[21] = Luminescence Cell-Based Dose Response Follow up to Identify Inhibitors of Platelet Dense Granule Release. [Related pubchem assays (depositor defined):AID1663, AID1678, AID1889, AID2519]; assay type: functional
[22] = target: Dual specificity protein kinase CLK1 (Homo sapiens, UniProt P49759); test: inhibition of human CLK1 activity – biochemical, cherry-picked samples, selectivity assay for Dyrk1A inhibitor project, dose response (AID 588811)
Chain of Dual specificity protein kinase CLK1 (P49759 whole entry): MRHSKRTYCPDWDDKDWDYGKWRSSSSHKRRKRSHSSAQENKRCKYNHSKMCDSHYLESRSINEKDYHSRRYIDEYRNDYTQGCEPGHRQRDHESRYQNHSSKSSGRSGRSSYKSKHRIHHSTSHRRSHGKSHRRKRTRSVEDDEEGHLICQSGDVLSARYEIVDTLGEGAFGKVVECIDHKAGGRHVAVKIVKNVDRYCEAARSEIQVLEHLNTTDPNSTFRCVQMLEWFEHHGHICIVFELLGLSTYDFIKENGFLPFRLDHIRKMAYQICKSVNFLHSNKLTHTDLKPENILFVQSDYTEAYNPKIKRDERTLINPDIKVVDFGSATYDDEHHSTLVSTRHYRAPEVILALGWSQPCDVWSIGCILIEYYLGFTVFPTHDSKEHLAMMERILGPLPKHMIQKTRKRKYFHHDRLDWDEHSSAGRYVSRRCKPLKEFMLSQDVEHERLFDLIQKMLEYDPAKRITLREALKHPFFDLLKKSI

[23] = target: Dual specificity tyrosine-phosphorylation-regulated kinase 1A (Rattus norvegicus, UniProt Q63470); assay type: biochemical, Homo sapiens
[24] = target: Dual specificity protein phosphatase 3 (Homo sapiens, UniProt P51452); test: SAR VHR1 Fluorescent Assay for In Vitro dose response studies Set 3. [Related pubchem assays (depositor defined):AID1654, AID1661, AID1878]; assay type: functional
Chain of Dual specificity protein phosphatase 3 (P51452 whole entry): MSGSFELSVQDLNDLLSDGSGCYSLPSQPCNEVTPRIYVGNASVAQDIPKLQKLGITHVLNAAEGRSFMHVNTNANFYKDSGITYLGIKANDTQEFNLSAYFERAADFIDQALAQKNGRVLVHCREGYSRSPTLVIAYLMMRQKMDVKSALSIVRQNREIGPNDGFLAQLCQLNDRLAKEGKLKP

[25] = target: Induced myeloid leukemia cell differentiation protein Mcl-1 (Homo sapiens, UniProt Q07820); assay type: functional
Chain of Induced myeloid leukemia cell differentiation protein Mcl-1 (Q07820 whole entry): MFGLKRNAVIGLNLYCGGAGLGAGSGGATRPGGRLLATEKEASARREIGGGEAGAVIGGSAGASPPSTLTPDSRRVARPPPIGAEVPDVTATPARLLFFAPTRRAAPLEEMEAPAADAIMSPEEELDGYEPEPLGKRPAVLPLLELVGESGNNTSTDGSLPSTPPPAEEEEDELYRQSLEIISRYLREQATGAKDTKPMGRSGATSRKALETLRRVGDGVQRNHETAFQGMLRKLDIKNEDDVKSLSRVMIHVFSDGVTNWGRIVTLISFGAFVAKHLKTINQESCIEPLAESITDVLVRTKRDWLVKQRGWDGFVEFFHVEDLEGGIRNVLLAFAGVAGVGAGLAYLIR

[26] = target: DNA dC->dU-editing enzyme APOBEC-3A (Homo sapiens, UniProt P31941); test: A3A deaminase inhibition for selectivity – biochemical, dose response (AID 504722); assay type: functional
Chain of DNA dC->dU-editing enzyme APOBEC-3A (P31941 whole entry): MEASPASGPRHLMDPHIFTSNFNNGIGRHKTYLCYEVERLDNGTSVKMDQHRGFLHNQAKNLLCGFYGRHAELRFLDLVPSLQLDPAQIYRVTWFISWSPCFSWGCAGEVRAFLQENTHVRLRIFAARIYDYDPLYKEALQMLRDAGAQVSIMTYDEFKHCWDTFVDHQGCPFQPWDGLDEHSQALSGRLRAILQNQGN

[27] = target: DNA dC->dU-editing enzyme APOBEC-3G (Homo sapiens, UniProt Q9HC16); test: Dose Response confirmation of small molecule APOBEC3G DNA Deaminase Inhibitors via a fluorescence-based single-stranded DNA deaminase assay. [Related pubchem assays (depositor defined):AID493012, AID493028]; assay type: functional
Chain of DNA dC->dU-editing enzyme APOBEC-3G (Q9HC16 whole entry): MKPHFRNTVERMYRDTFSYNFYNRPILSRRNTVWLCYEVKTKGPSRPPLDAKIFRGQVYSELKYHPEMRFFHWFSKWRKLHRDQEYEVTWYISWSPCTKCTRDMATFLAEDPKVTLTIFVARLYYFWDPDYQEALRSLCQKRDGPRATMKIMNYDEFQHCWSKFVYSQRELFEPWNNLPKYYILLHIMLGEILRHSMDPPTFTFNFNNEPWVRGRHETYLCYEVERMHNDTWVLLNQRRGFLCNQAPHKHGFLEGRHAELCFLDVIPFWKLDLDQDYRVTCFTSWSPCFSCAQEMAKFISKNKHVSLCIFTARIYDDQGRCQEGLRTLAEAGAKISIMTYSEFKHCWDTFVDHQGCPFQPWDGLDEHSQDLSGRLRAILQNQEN

[28] = target: T4, Apoptotic protease-activating factor 1 (Homo sapiens, UniProt O14727); test: activation of Apaf-1 mediated apoptosis – fluorescent, uHTS hits, dose response (AID 588554); assay type: functional
T4 sequence (O14727 whole entry): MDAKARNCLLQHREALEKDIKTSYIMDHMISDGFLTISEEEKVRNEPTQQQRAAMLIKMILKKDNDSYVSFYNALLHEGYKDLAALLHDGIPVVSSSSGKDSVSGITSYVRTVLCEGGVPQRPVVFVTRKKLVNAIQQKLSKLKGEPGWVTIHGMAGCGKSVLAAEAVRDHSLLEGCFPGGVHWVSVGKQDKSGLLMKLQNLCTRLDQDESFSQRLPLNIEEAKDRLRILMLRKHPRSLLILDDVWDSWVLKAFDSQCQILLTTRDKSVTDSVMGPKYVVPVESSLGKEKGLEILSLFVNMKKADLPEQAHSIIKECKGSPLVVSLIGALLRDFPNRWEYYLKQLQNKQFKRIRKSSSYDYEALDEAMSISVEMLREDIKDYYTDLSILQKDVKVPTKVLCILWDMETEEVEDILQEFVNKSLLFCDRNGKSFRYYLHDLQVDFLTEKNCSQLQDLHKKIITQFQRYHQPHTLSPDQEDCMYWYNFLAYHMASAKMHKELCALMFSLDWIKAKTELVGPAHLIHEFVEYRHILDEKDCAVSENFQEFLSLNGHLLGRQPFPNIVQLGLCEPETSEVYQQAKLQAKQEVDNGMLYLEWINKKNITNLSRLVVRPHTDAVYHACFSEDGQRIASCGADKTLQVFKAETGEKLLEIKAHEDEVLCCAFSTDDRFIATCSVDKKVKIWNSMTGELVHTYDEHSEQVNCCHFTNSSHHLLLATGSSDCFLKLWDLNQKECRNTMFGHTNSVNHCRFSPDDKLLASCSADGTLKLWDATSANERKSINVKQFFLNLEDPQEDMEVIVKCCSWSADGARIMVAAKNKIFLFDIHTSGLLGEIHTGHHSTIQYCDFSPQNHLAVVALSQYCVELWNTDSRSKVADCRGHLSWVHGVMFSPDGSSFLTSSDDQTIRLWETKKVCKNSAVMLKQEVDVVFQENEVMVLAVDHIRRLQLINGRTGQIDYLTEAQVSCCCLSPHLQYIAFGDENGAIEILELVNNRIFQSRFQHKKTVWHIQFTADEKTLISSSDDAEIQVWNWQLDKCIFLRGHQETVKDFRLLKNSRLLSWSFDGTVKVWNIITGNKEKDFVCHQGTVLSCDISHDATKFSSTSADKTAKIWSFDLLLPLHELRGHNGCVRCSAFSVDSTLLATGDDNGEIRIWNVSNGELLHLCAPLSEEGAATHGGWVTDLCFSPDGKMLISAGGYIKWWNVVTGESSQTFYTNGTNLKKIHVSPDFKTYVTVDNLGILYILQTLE

[29] = target: T5, Carboxy-terminal domain RNA polymerase II polypeptide A small phosphatase 1 (Homo sapiens, UniProt Q9GZU7); test: CTDSP1 inhibitors, concentration-response, biochemical, absorbance readout, ultra-high-throughput screen actives (AID 540297); assay type: functional
T5 sequence (Q9GZU7 whole entry): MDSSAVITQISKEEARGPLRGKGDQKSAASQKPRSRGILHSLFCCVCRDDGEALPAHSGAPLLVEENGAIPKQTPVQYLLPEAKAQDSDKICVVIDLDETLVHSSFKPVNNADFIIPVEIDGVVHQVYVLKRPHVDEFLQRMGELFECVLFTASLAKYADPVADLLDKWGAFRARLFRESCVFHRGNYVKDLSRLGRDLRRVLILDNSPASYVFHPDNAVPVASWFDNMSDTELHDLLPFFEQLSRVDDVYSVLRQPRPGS

[30] = target: DNA (cytosine-5)-methyltransferase 1 (Homo sapiens, UniProt P26358); test: inhibition of DNA methylation by DNMT1 – biochemical, fluorescent molecular beacon, confirmation (AID 602386); assay type: functional
Chain of DNA (cytosine-5)-methyltransferase 1 (P26358 whole entry): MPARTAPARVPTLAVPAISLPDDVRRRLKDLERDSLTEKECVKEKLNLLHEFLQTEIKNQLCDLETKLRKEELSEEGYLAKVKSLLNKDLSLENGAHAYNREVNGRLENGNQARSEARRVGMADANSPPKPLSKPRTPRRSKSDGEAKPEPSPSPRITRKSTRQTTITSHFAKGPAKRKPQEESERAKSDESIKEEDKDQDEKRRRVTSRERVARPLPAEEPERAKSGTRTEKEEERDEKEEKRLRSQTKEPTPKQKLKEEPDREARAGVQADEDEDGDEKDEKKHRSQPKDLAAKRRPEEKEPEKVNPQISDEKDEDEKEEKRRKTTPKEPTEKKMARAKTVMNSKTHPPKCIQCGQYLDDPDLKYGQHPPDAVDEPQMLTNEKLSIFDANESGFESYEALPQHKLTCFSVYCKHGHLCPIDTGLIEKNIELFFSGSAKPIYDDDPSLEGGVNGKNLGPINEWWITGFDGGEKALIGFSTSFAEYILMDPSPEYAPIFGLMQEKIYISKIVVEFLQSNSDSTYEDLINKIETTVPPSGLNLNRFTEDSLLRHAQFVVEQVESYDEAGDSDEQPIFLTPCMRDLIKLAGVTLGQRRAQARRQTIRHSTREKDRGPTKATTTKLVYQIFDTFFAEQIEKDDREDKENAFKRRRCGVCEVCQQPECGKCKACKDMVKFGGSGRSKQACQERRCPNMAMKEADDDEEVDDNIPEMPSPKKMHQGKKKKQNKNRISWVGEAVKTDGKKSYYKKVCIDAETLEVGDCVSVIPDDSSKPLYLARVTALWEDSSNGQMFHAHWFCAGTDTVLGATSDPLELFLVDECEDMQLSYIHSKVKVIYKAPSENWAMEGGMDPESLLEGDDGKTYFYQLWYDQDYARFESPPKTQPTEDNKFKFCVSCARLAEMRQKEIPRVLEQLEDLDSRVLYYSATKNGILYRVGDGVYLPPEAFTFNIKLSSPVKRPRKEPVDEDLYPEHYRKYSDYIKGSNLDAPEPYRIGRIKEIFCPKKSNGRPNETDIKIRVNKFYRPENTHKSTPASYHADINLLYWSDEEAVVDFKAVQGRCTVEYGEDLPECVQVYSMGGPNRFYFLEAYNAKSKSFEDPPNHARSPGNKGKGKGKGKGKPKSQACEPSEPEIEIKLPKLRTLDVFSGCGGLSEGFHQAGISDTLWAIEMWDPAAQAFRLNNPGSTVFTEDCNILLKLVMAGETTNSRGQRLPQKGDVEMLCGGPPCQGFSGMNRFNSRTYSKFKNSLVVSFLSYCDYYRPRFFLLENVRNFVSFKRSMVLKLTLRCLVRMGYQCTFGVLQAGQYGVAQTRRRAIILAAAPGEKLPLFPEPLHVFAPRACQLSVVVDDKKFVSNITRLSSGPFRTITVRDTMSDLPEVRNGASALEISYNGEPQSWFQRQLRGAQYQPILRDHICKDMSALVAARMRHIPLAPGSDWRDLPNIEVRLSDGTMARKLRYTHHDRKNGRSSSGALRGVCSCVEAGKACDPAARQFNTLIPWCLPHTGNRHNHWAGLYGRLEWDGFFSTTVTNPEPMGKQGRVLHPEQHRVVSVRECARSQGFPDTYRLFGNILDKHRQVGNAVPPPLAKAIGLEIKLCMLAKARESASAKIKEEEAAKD

[31] = target: T6, Small ubiquitin-related modifier 1 (Homo sapiens, UniProt P63165); test: SUMO1 protein interaction blockers, potency – biochemical, fluorescence polarization, uHTS hits, dose response (AID 624382); assay type: functional; settings: read-out: IC50_Mean
T6 sequence (P63165 whole entry): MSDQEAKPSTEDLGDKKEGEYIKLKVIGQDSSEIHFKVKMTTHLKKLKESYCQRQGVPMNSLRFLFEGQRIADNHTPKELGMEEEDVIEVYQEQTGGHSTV

[32] = target: T6, Small ubiquitin-related modifier 1; test: SUMO1 protein-protein binding blockers, potency – biochemical, FRET, dose response (AID 624383); assay type: functional; settings: read-out: IC50_Mean

SMILES: CCCCCCCCCCCCCCCCCCC#CCCCCCCCCCCC(=O)O
- IC50 [1]: 15.2 µM (active)
- IC50 [2]: > 100 µM (not active)
- IC50 [3]: > 100 µM (inactive)
- IC50 [4]: > 100 µM (inactive)

SMILES: CC(C)=CCCC(C)CN(C)CCc1ccccn1 (stereo unspecified)
- EC50 [5]: 0.027 µM (active)
- EC50 [6]: < 0.1 µM (active)
- EC50 [7]: > 195 µM (not active)
- EC50 [8]: > 60 µM (not active)
- EC50 [9]: 0.027 µM (active)
- EC50 (cells): 0.083 µM (active)

SMILES: O=C(Nc1ccc(Br)cn1)c1ccc([N+](=O)[O-])o1
- EC50 [10]: 16.7 µM (active)
- IC50 (Vero [11]): > 25 µM (active)
- CC50 (Vero [12]): 13.8 µM (active)
- IC50 [13]: 35.9 µM (inactive)
- IC50 (Steroidogenic factor 1): 35.9 µM (inactive)
- IC50 [14]: 35.9 µM (inactive)

SMILES: Cn1ccnc1N1CCN(C(=O)c2ccc(Cl)cc2)CC1
- AC50 (Candida albicans [15]): 224 µM (active)
- AC50 (Candida albicans [16]): 8.2 µM (active)
- AC50 (Candida albicans [17]): 0.587 µM (active)
- AC50 (Candida albicans [18]): > 260 µM (inactive)

SMILES: O=C(c1ccccc1)N1CCN(c2ccnc3cc(Cl)ccc23)CC1
- AC50 (Candida albicans [15]): 2.05 µM (active)
- AC50 (Candida albicans [16]): 1.69 µM (active)
- AC50 (Candida albicans [19]): 5.68 µM (active)

SMILES: C/C(=N/NC(=O)C1CCCC1)c1ccc(NC(=O)C(F)(F)F)cc1
- AC50 [20]: 12.3 µM (active)
- EC50 [21]: 0.802 µM (active)

SMILES: CC(=O)Nc1ccc(Nc2cc(C)nc3c(-c4ccccc4)cnn23)cc1
- AC50 [22]: 15.3 µM (active)
- AC50 [23]: 5.54 µM (active)

SMILES: COc1ccc(C(=O)Nc2nc3c(OC)cccc3s2)cc1
- IC50 [24]: 41.9 µM (active)

SMILES: C=C(C)C(=O)Nc1cccc(C2=NOC3(C2)C[C@@H](C(N)=O)N(C(=O)C(=C)C)C3)c1 (stereo partly specified)
- IC50 [25]: 3.08 µM (not active)
- IC50 [26]: > 100 µM (inactive)
- IC50 [27]: 5.94 µM (active)
- EC50 [28]: 1.24 µM (active)
- IC50 [29]: 1.89 µM (active)
- IC50 [30]: 4.95 µM (active)
- IC50 [31]: > 66.6 µM (inactive)
- IC50 [32]: 2.56 µM (active)
